Measurements from ChEMBL document CHEMBL5096241, “Discovery of 3-Aminopyrazole Derivatives as New Potent and Orally Bioavailable AXL Inhibitors” (J Med Chem, 2022).
pIC50, pKd: −log10 of the molar value. The source made the active and inactive calls. The rule behind the calls is not given here.

Tests used:
[1] = AUClast in Sprague-Dawley rat at 25 mg/kg, po measured for 96 hrs by LC-MS analysis; type: ADME, organism-based; set-up: time 96 hrs, dose 25 mg/kg, route po; details: in vivo
[2] = Inhibition of TGF-beta induced cell invasion in human MDA-MB-231 cells at 1 uM incubated for 24 hrs by crystal violet staining based transwell assay relative to control; type: functional
[3] = Tmax in Sprague-Dawley rat at 25 mg/kg, po measured for 96 hrs by LC-MS analysis; type: ADME, organism-based; details: in vivo
[4] = molecular target: T1, Mast/stem cell growth factor receptor Kit (Homo sapiens, UniProt P10721); assay: Binding affinity to KIT (unknown origin) assessed as dissociation constant by competition binding assay
T1 sequence (P10721 whole entry): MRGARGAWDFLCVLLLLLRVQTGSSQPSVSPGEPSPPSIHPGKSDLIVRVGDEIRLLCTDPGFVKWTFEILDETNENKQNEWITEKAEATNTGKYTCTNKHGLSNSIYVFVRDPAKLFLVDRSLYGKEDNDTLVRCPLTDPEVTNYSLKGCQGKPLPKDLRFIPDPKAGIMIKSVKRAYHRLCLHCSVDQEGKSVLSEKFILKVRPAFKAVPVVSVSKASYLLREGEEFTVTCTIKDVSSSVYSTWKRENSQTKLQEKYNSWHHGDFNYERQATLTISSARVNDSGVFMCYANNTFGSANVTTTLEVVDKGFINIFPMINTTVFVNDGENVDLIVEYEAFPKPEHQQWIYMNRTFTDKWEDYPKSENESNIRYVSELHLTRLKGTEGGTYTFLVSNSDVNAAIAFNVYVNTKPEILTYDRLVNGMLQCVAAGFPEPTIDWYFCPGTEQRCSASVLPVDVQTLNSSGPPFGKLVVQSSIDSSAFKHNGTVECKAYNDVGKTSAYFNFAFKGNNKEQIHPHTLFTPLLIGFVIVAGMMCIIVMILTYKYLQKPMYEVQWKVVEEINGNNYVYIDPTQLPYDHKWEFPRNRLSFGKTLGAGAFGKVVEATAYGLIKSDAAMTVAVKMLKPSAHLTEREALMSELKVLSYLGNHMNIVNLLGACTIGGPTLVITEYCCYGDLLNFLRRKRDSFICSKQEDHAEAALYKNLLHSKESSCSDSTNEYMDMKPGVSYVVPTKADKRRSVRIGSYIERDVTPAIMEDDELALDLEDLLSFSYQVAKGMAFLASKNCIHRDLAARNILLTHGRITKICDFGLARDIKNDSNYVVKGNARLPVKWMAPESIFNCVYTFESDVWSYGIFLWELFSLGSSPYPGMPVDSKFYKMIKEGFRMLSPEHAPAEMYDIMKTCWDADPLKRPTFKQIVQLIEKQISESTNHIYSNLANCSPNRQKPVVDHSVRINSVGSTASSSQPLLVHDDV

[5] = Tmax in Sprague-Dawley rat at 5 mg/kg, iv measured for 96 hrs by LC-MS analysis; type: ADME, organism-based; details: in vivo
[6] = Toxicity in BALB/c mouse implanted with mouse 4T1 cells assessed as effect on implantation rate at 50 to 100 mg/kg, po qd administered for 14 consecutive days and measured every 2 days; type: organism-based; details: in vivo, 336 h, dose 50-100 mg/kg, time 14 day
4T1 [7] = assay: Antitumor activity against metastatic mouse 4T1 cells implanted in BALB/c mouse assessed as tumor growth inhibition at 100 mg/kg, po qd administered for 14 consecutive days and measured every 2 days by electronic caliper method relative to control; type: functional; details: 4T1, 336 h, time 14 day, read-out: TGI
MDA-MB-231 [8] = assay: Inhibition of TGF-beta induced cell migration in human MDA-MB-231 cells assessed as reduction in wound closure at 1 to 3 uM incubated for 24 hrs by bright field microscopy based wound healing assay; type: functional; details: dose 1-3 µM
[9] = Inhibition of TGF-beta induced cell invasion in human MDA-MB-231 cells at 0.11 uM incubated for 24 hrs by crystal violet staining based transwell assay relative to control; type: functional
[10] = molecular target: Receptor-type tyrosine-protein kinase FLT3 (Homo sapiens, UniProt P36888); assay: Inhibition of FLT3 (unknown origin)
Chain of Receptor-type tyrosine-protein kinase FLT3 (P36888 whole entry): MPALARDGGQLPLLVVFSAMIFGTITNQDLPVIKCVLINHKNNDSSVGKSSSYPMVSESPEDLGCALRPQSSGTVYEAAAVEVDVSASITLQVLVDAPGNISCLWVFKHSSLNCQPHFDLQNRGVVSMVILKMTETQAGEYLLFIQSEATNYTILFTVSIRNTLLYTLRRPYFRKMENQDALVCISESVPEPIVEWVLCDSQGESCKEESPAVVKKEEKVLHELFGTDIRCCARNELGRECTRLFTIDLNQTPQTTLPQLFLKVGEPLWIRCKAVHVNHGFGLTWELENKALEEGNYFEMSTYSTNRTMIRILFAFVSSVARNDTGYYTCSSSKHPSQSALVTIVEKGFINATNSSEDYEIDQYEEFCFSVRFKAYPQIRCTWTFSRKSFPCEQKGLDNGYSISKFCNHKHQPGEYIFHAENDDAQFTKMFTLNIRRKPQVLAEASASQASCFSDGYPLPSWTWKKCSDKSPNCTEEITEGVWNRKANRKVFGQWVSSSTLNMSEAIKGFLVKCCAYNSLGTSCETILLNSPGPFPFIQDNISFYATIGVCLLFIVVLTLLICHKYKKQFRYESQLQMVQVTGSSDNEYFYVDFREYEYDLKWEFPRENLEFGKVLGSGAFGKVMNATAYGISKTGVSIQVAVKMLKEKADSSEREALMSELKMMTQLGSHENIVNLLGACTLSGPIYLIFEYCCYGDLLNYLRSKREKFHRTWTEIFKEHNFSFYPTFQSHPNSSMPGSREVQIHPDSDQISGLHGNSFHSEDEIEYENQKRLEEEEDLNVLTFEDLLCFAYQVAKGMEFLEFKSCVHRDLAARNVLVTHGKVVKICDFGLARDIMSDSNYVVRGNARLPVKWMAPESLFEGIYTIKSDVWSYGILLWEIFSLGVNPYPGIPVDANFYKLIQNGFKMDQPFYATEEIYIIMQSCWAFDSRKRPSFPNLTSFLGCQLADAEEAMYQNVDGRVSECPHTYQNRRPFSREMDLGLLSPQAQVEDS

4T1 [11] = assay: Antitumor activity against metastatic mouse 4T1 cells implanted in BALB/c mouse assessed as inhibition of liver micrometastasis at 50 to 100 mg/kg, po qd administered for 14 consecutive days by H & E staining based microscopic analysis; type: functional, organism-based; details: dose 50-100 mg/kg, time 14.0 day
[12] = molecular target: Serine/threonine-protein kinase 10 (Homo sapiens, UniProt O94804); assay: Binding affinity to LOK (unknown origin) assessed as dissociation constant by competition binding assay
Chain of Serine/threonine-protein kinase 10 (O94804 whole entry): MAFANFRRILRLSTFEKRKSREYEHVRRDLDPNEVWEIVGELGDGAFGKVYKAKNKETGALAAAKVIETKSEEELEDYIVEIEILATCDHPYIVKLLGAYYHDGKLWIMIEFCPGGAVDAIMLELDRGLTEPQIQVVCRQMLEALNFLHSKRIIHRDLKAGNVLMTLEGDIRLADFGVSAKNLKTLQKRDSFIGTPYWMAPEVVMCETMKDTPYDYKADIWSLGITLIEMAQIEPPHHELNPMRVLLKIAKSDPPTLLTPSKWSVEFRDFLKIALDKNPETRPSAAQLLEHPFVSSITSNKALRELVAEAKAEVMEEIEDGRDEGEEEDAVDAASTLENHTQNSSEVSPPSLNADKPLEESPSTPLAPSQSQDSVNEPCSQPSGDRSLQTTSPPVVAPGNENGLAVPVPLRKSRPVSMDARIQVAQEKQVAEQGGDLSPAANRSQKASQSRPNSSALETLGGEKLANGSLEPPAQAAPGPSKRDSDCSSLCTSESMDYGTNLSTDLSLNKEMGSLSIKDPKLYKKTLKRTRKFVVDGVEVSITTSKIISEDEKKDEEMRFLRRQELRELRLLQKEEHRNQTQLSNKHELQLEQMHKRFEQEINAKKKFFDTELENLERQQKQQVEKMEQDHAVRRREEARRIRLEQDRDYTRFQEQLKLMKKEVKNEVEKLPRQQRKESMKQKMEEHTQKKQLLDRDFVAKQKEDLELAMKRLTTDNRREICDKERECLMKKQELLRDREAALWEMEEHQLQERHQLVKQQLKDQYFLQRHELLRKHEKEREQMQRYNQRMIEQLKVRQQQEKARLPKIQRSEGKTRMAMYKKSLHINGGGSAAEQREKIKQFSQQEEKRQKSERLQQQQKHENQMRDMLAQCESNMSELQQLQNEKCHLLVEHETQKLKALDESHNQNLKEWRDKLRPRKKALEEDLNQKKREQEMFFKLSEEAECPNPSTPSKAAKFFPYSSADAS

[13] = Cmax in Sprague-Dawley rat at 5 mg/kg, iv measured for 96 hrs by LC-MS analysis; type: ADME, organism-based; set-up: time 96 hrs, dose 5 mg/kg, route iv; details: in vivo
[14] = Inhibition of TGF-beta induced cell invasion in human MDA-MB-231 cells at 0.33 uM incubated for 24 hrs by crystal violet staining based transwell assay relative to control; type: functional
[15] = Half life in Sprague-Dawley rat at 25 mg/kg, po measured for 96 hrs by LC-MS analysis; type: ADME, organism-based; details: in vivo
[16] = Toxicity in BALB/c mouse implanted with mouse 4T1 cells assessed as splenomegaly at 50 to 100 mg/kg, po qd administered for 14 consecutive days; type: organism-based; details: in vivo, 336 h, dose 50-100 mg/kg, time 14 day
[17] = molecular target: Vascular endothelial growth factor receptor 1 (Homo sapiens, UniProt P17948); assay: Binding affinity to FLT1 (unknown origin) assessed as dissociation constant by competition binding assay
Chain of Vascular endothelial growth factor receptor 1 (P17948 whole entry): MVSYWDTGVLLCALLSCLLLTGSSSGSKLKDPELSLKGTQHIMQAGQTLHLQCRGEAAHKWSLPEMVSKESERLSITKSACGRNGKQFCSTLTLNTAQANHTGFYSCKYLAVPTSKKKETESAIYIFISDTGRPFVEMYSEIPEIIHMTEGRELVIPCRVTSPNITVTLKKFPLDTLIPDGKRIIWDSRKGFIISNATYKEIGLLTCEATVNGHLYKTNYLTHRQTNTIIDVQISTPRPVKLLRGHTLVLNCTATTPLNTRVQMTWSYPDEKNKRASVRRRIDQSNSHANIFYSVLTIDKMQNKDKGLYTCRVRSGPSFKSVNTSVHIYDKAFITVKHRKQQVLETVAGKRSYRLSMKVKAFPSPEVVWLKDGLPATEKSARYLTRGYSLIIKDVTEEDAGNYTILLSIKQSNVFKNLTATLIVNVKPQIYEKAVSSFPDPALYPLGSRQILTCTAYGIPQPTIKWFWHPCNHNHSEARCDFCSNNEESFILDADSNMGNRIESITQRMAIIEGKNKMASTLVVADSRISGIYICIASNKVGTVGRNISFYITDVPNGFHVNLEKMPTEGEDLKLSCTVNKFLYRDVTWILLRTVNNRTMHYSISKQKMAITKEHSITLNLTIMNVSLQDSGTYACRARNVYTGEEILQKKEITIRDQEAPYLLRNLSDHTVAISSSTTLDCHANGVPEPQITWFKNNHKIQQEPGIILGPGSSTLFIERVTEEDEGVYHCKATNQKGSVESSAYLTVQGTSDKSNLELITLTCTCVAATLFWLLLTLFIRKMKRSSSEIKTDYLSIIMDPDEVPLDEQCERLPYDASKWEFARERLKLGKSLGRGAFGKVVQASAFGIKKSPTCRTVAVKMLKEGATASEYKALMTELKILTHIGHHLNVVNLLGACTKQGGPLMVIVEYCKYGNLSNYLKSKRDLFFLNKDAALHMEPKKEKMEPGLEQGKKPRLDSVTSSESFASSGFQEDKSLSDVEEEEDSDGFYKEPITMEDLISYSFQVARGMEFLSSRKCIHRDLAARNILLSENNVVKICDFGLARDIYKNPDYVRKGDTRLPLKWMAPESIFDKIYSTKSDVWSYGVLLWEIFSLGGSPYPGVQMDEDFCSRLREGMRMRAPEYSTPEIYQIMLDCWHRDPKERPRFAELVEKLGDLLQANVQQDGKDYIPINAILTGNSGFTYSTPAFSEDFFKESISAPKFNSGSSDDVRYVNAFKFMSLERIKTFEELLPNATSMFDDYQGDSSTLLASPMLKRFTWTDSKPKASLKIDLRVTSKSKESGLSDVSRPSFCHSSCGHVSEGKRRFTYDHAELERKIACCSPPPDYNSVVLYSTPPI

4T1 [18] = assay: Antitumor activity against metastatic mouse 4T1 cells implanted in BALB/c mouse assessed as reduction in number of liver metastases at 50 mg/kg, po qd administered for 14 consecutive days by H & E staining based microscopic analysis (reference value: 24.7 +/- 6.7); type: functional; details: time 14 day
MDA-MB-231 [19] = assay: Inhibition of TGF-beta induced epithelial mesenchymal transition process in human metastatic MDA-MB-231 cells assessed as restoration of N-cadherin expression incubated for 3 days by Western blot analysis; type: functional, cell-based; details: dose 0.11-3 µM, time 3.0 day, DDE = dose-dependent effect
[20] = molecular target: T1, Mast/stem cell growth factor receptor Kit; assay: Inhibition of KIT (unknown origin)
[21] = molecular target: Epithelial discoidin domain-containing receptor 1 (Homo sapiens, UniProt Q08345); assay: Binding affinity to DDR1 (unknown origin) assessed as dissociation constant by competition binding assay
[22] = molecular target: Serine/threonine-protein kinase AKT (Homo sapiens) (UniProt P31751+Q9Y243+P31749); assay: Inhibition of AKT phosphorylation at S473 residue in human MDA-MB-231 cells measured after 6 hrs by Western blot analysis; type: cell-based; details: dose 0.8-500 nM, DDE = dose-dependent effect
4T1 [23] = assay: Antitumor activity against metastatic mouse 4T1 cells implanted in BALB/c mouse assessed as reduction in size of liver metastases administered orally once daily for 14 consecutive days by H & E staining based microscopic analysis; type: functional; details: dose 50-100 mg/kg, route po, time 14.0 day, DDE = dose-dependent effect
Ephrin type-B receptor 6 = Ephrin type-B receptor 6 (Homo sapiens, UniProt O15197); assay: Binding affinity to EPHB6 (unknown origin) assessed as dissociation constant by competition binding assay
[24] = molecular target: Macrophage colony-stimulating factor 1 receptor (Homo sapiens, UniProt P07333); assay: Binding affinity to CSF1R (unknown origin) assessed as dissociation constant by competition binding assay
[25] = molecular target: Tyrosine-protein kinase receptor UFO (Mus musculus) (UniProt Q00993); assay: Inhibition of AXL phosphorylation at Tyr702 residue in mouse 4T1 cells measured after 6 hrs by Western blot analysis; type: cell-based; details: dose 0.8-500 nM, DDE = dose-dependent effect
[26] = molecular target: Tyrosine-protein kinase Mer (Homo sapiens, UniProt Q12866); assay: Binding affinity to MERTK (unknown origin) assessed as dissociation constant by competition binding assay

**Q.** Which AUC(0-t) at 96 h [1] does the source give for `COc1cc2c(Oc3ccc(Nc4nn(C)cc4C(=O)NC4CCCCC4)cc3F)ccnc2cc1OCCCN1CCOCC1` here?
**A.** Its AUC(0-t) at 96 h is 8410 ng·h/mL.

**Q.** And the inhibition at 1 µM [2]?
**A.** Its inhibition at 1 µM is 56.5%.

**Q.** What about the Tmax [3] of the same compound?
**A.** Its Tmax is 3 h.

**Q.** What about the pKd [4] of the same compound?
**A.** Its pKd is 8.59.

**Q.** And the Tmax [5]?
**A.** Its Tmax is 4.8 min.

**Q.** And the Activity [6]?
**A.** Its Activity is “Non-Toxic”.

**Q.** What about the inhibition in vivo at 100 mg/kg (4T1 [7]) of the same compound?
**A.** Its inhibition in vivo at 100 mg/kg is 95.9%.

**Q.** And the inhibition (MDA-MB-231 [8])?
**A.** The inhibition was “Active”.

**Q.** What about the inhibition at 0.11 µM [9] of the same compound?
**A.** The inhibition at 0.11 µM was 22.6%.

**Q.** And the pIC50 [10]?
**A.** The pIC50 was 6.81.

**Q.** And the inhibition (4T1 [11])?
**A.** Its inhibition is “Active”.

**Q.** What about the pKd [12] of the same compound?
**A.** The pKd was 6.06.

**Q.** And the Cmax [13]?
**A.** The Cmax was 12300 ng/mL.

**Q.** And the inhibition at 0.33 µM [14]?
**A.** The inhibition at 0.33 µM was 34.8%.

**Q.** What about the half-life [15] of the same compound?
**A.** Its half-life is 4.22 h.

**Q.** What about the Activity [16] of the same compound?
**A.** Its Activity is “Non-Toxic”.

**Q.** What about the pKd [17] of the same compound?
**A.** The pKd was 7.85.

**Q.** What about the Activity (4T1 [18]) of the same compound?
**A.** The Activity was 3.2.

**Q.** And the inhibition (MDA-MB-231 [19])?
**A.** The inhibition was “Dde”.

**Q.** And the pIC50 [20]?
**A.** The pIC50 was 6.82.

**Q.** What about the pKd [21] of the same compound?
**A.** Its pKd is < 6.00.

**Q.** What about the inhibition [22] of the same compound?
**A.** The inhibition was “Dde”.

**Q.** And the Activity (4T1 [23])?
**A.** The Activity was “Dde”.

**Q.** What about the pKd (Ephrin type-B receptor 6) of the same compound?
**A.** Its pKd is < 6.00.

**Q.** And the pKd [24]?
**A.** The pKd was 7.54.

**Q.** And the inhibition [25]?
**A.** Its inhibition is “Dde”.

**Q.** What about the pKd [26] of the same compound?
**A.** The pKd was 6.25.
